Test results taken from PubChem BioAssay AID1850 (Southern Research Specialized Biocontainment Screening …, 2009).
“And” between values parts separate entries of the source, which are not always exact repeats. Equal entries are not always repeated.

tested on: Salmonella Typhi PhoP-promoter GFP reporter, fluorescence, 4 h; assay: PhoP regulon inhibitors, Salmonella typhi PhoP promoter GFP reporter, confirmatory (AID 1850)

Row | Structure (SMILES) | IC50
1 | O=C(C[n+]1cc(-c2ccccc2)n2c1CCC2)Nc1nc(-c2ccc(F)cc2)cs1 | 38.7 µM
2 | O=C(CNC(=O)c1cccc(F)c1)N/N=C/c1ccc([N+](=O)[O-])s1 | 20 µM
3 | Oc1c(Br)cc(Br)cc1C=Nc1cccc2ncccc12 | 37.2 µM
4 | NC(=NCCCCCCN=C(N)/N=C(\N)Nc1ccc(Cl)cc1)/N=C(\N)Nc1ccc(Cl)cc1 | 5.4 µM and 7.69 µM and 5.26 µM
5 | O=C(N/N=C\c1ccc(Cl)s1)c1cccs1 | 78.5 µM
6 | Cc1ccc(C(C[N+](=O)[O-])c2c(N)n(C)c(=O)n(C)c2=O)cc1 (centres undefined) | 145 µM
7 | C[C@H]1c2cccc(O)c2C(O)=C2C(=O)[C@]3(O)C(O)=C(C(N)=O)C(=O)[C@@H](N(C)C)C3[C@@H](O)C21 (some centres undefined) | 1.91 µM
8 | CC1CC(C)CN(CCOc2ccc(Cl)cc2Cl)C1 (centres undefined) | 113 µM
9 | CCC(C)(C)c1ccc(OCCCC[n+]2ccccc2)c(C(C)(C)CC)c1 | 19.2 µM
10 | CN1CCN(C(c2cccc(Cl)c2)c2ccccc2Cl)CC1 (centres undefined) | 103 µM
11 | C#CCOCCOCCOCCNc1nc(N2CCN(C(=O)CCCCCCCCCCNC(=O)[C@H](CCCCN)n3cc(C)nn3)CC2)nc(N2CCN(C(=O)CCCCCCCCCCNC(=O)[C@@H]([C@H](C)CC)n3cc(CCCCCN)nn3)CC2)n1 | 33 µM
12 | CCOc1ccc(/C=N/NC(=O)c2[nH]ncc2Br)c(O)c1 | 138 µM
13 | Cc1cc(C)n2nc(S(=O)(=O)Nc3c(Cl)cccc3Cl)nc2n1 | 63.5 µM
14 | Oc1c(I)cc(Cl)c2cccnc12 | 9.4 µM
15 | CO[C@H]1/C=C/O[C@@]2(C)Oc3c(C)c(O)c4c(O)c(c(C=NN5CCN(C)CC5)c(O)c4c3C2=O)NC(=O)/C(C)=C\C=C\[C@H](C)[C@H](O)[C@@H](C)[C@@H](O)[C@@H](C)[C@H](OC(C)=O)[C@@H]1C | 9.7 µM
16 | O=C(CC(=O)c1c(F)cccc1Cl)c1ccccc1O | 50.8 µM
17 | O=C(Oc1ccccc1)c1cc2ccccc2o1 | 38.1 µM
18 | Cc1c2ccncc2c(C)c2c1[nH]c1ccccc12 | 18.8 µM
19 | CC[C@H]1OC(=O)C[C@@H](O)[C@H](C)[C@@H](O[C@@H]2O[C@H](C)C[C@H](N(C)C)[C@H]2O)[C@@H](CC=O)C[C@@H](C)C(=O)C=C[C@]2(C)O[C@H]2[C@@H]1C | 7.16 µM
20 | C#CCOCCOCCOCCNc1nc(N2CCN(C(=O)CCCCCCCCCCNC(=O)Cn3cc(CCCCCN)nn3)CC2)nc(N2CCN(C(=O)CCCCCCCCCCNC(=O)[C@H]([C@@H](C)CC)n3cc(CCCCN=C(N)N)nn3)CC2)n1 | 28.3 µM
21 | OC(CNCCc1ccc(Cl)cc1Cl)COc1ccccc1 (centres undefined) | 71 µM
22 | Cc1ccc(C(=O)Sc2cccccc2=O)cc1 | 5.2 µM
23 | Cc1ccc(OCC(O)Cn2c(=N)n(CCN3CCCCC3)c3ccccc32)cc1 (centres undefined) | 112 µM
24 | Cc1nc(N)nc(N)c1CCCc1ccc(Cl)c(Cl)c1 | 35.9 µM
25 | O=C(Cc1ccccc1)NNC(=S)NC(=O)c1cccs1 | 46.5 µM
26 | Nc1c(Cl)ncnc1N/N=C/c1ccccn1 | 33.7 µM
27 | O=C(N/N=C/c1cc(Br)cc(Br)c1O)c1ccncc1 | 43.9 µM

Row | Structure (SMILES) | IC50
28 | Cc1ccc2nc(NCc3ccccc3)[nH]c2c1 | 62.3 µM
29 | O=CN/N=C/c1c(O)ccc2ccccc12 | 35.4 µM
30 | Cc1cc(N/N=C/c2ccc(O)cc2)c2cccc(C)c2n1 | 39.9 µM
31 | c1ccc2c(c1)CCc1ccccc1C2=C1CCNCC1 | 74.9 µM
32 | O=C(CCN1CCN(C(=O)c2ccccc2)CC1)c1ccc(Br)cc1 | 117 µM
33 | Cc1ccc(OCC(=O)N/N=C\c2c(C)[nH]n(-c3ccccc3)c2=O)c([N+](=O)[O-])c1 | 66.6 µM
34 | CN1CCN(C(c2ccc(Cl)cc2)c2cc(Cl)c3cccnc3c2O)CC1 (centres undefined) | 19.7 µM
35 | CC1=NN(c2nc3ccccc3[nH]2)C(=O)C1Cc1ccccc1 (centres undefined) | 50.3 µM
36 | NC(N)=N/N=C/c1ccc(OCc2ccccc2Cl)cc1 | 31.2 µM
37 | Cc1ccc(-c2csc(NC(=O)C[n+]3cc(-c4ccc(C)cc4)n4c3CCC4)n2)cc1 | 25 µM
38 | Cc1cc(N/N=C/c2ccc(F)cc2)nc(NCc2ccccc2)n1 | 55.2 µM
39 | S=C(NCc1ccc(Cl)cc1)Nc1ccncc1 | 19.1 µM
40 | O=C1C=C(Nc2ccccc2O)c2ccccc2C1=O | 54.5 µM
41 | O=C(NC(=S)NNC(=O)c1ccco1)c1ccc(Br)cc1 | 88.4 µM
42 | Cc1cc(C)n(-c2nc(SCCN(C)C)c3c4c(sc3n2)CCCC4)n1 | 41.2 µM
43 | Cc1ccc(C)c(Nc2cc(C)nc3ccccc23)c1 | 51.5 µM
44 | COc1ccc(Nc2nc(NCC3CCCO3)c3ccccc3n2)c(OC)c1 (centres undefined) | 37 µM
45 | CN1CCN(c2c(F)cc3c(=O)c(C(=O)O)cn4c3c2SCC4)CC1 | 2.46 µM and 3.26 µM
46 | Cc1ccc(C[n+]2c(-c3ccc(C)cc3)cc(-c3ccc(C)cc3)cc2-c2ccc(C)cc2)cc1 | 20.1 µM
47 | O=C(CCN1CCN(c2ccccc2F)CC1)c1ccc(Br)cc1 | 39 µM
48 | O=C(CSc1ccccn1)Nc1nonc1[N+](=O)[O-] | 87.3 µM
49 | O=[N+]([O-])c1cc(F)c2cccnc2c1O | 6.57 µM
50 | Cc1ccc(C(=O)N/C(=C\c2ccc(-c3ccc(Br)cc3)o2)C(=O)NCCCN(C)C)cc1 | 37.1 µM
51 | Nc1ncn([C@@H]2O[C@H](CO)[C@@H](O)[C@H]2O)c(=O)n1 | 42.5 µM
52 | O=C(N/N=C/c1ccccn1)c1cccs1 | 71.6 µM
53 | CN1CCN(c2cc3c(cc2F)c(=O)c(C(=O)O)cn3CCF)CC1 | 0.31 µM
54 | CCn1cc(C(=O)NCC(C)C)c(=O)c2cc(F)c(N3CCN(C)CC3)cc21 | 14.9 µM
